Results as given in US10660835B2, “Method for hair frizz reduction” (The Procter & Gamble Company, priority 2015, dated 2020).

Test: DVS water uptake after soaking treatment
Details: pH 4.2, 40 deg C, at 90% RH
Experimental: The Moisture Control Material is added into a 50:50 ethanol:water solvent at a concentration of 2% w/w and mixed until completely dissolved. The solution pH is adjusted with sodium hydroxide (50% w/w) to a final pH of 4.2. The soaking solution is kept at 40 deg C. for 2 hrs until a uniform composition is obtained.
One hair switch of natural virgin brown hair is placed in 200 ml of this solution for 2 hours in an oven set at 40° C. After the 2-hour period, the hair is removed, air dried and then tested for moisture uptake using DVS. For the control experiment, a natural brown virgin hair switch of the same weight is placed in a 50:50 ethanol:water solvent and treated under identical conditions.
The % water reduction is calculated as follows: […]
Hair is soaked in active solution of pH 4.2 for different intervals of time from 10 min to 2 hrs at 40 deg C. Hair Switches are air dried and prepared for % water reduction measurement using DVS vs. control (no active).

## O=C(O)c1cc(Cl)ccc1O [5-Chlorosalicylic acid]
10 min soaking
  % water reduction vs control: 9.6%
20 min soaking
  % water reduction vs control: 14.8%
30 min soaking
  % water reduction vs control: 19%
1 hr soaking
  % water reduction vs control: 26%
2 hr soaking
  % water reduction vs control: 30%
